Test results from article PMC8667045, “Into Deep Water: Optimizing BCL6 Inhibitors by Growing into a Solvated Pocket” (Journal of Medicinal Chemistry, 2021).
In brackets after ≈: the same amount, converted by molar mass. Several values for one entry are separate records, joined by “and”; a condition that tells them apart may be missing. Equal entries are not always repeated. Where two headings read alike, the source gives them in different places.

Columns and labels:
BCL6 BTB domain [1] = target: T1, BCL6 BTB domain (Homo sapiens, UniProt P41182); assay: biochemical; details: for BCL6 TR-FRET pIC50 mean: mean of n replicates
Method: Supplementary experimental: protein production, purification and crystallography
3C protease cleavage site.
used without cleaving the tag, as a 6His was needed to bind to the anti-6His-Terbium antibody. For
For both plasmid constructs described above, transformed BL21-AI E. coli cells were grown in LB
carried out at 18 °C for 18 hours. Cells were harvested by centrifugation (5500 g for 30 minutes at 4
oC) and stored at -80 °C.
Cells were re-suspended in a buffer composed of 20 mM Tris pH 8, 250 mM NaCl, 1 mM MgCl2, 0.5
Cells were lysed by sonication followed by centrifugation at 21,000 g for 45 minutes at 4 °C. […]
The final protein was assessed for purity
and molar mass by SDS-PAGE and high-resolution mass spectrometry, respectively.
(§1) directly eluted from the HisTrap FF column without HRV-3C treatment, and submitted to Superdex75
gel filtration as described above. […]
2. Supplementary experimental: biological assay conditions
IC50 values were determined using
a sigmoidal four-parameter logistic fit equation.

BCL6 BTB domain [2] = target: T1, BCL6 BTB domain; assay: Rapid X-ray screen: ligand density in extended pocket of BCL6 BTB domain; set-up: made in house; host or cells: E. coli BL21-AI; details: crystals soaked with compound
From the text: Furthermore, we speculated that these represent better starting points since the substituent can be modified further to derive additional interactions and more completely fill the extended pocket. […] Instead, we just checked for the presence of ligand density and, in particular, for electron density in the extended pocket.
as §1
gel filtration as described above.
NH2. A stock solution of WVIP peptide at 100 mM in 100 % DMSO was added to a 2 mg/mL solution
This mixture was then concentrated to a final
protein concentration of 4 mg/mL using a centrifugal concentrator with a 3 kDa molecular weight
complex plus 1 μL of a crystallisation solution consisting of 1 M K 2HPO4, 0.7 M NaH2PO4, 75 mM
drops, followed by 10-120 minutes incubation. Crystals were then cryo-protected in a solution
composed of the crystallisation reagent supplemented with 30 % ethylene glycol and cryo-cooled in
concentrated to a final protein concentration of 10 mg/mL using a centrifugal concentrator with a 3
kDa molecular weight cut-off. Crystals were grown at 18 °C in hanging drops composed of 1.5 μL of
and 0.80 M Na/K Tartrate, against 300 μL of crystallisation solution.
and compounds were soaked as described above for the other construct. Crystals were then cryo-
protected in a solution composed of the crystallisation reagent supplemented with 30 % ethylene
glycol and cryo-cooled in liquid nitrogen.
1.5 Crystallographic data collection, processing and refinement
X-ray data were collected at Diamond Light Source, Harwell campus, Oxfordshire, UK, on beamlines
Research, London, UK, on a Rigaku FRX-AFC11-VariMax Cu-VHF-Pilatus300K. Crystals obtained with […]

NMR solubility assay = assay type: physicochemical; details: HEPES buffer, 5% DMSO, room temperature
Method: 3. Supplementary experimental: physicochemical assays
The plate was then sealed and incubated at room temperature for 20 hours, without shaking. The plate was centrifuged again for 1 minute at […]
spectrometer equipped with a 5 mm TCI-CryoProbe. […]
deuterated solvent. […] All NMR data were acquired at the […]
contained 16k time-domain data points. Relaxation delay was set to 20 sec. […]

[3] = PAMPA passive permeability pH 7.4; details: for PAMPA7.4: pH 7.4, passive permeability Pe
[4] = TR-FRET IC50 individual replicates, single replicates, italic values used 10nM BCL6, otherwise 1nM BCL6
[5] = read-out: BCL6 TR-FRET Geo Mean IC50, geometric mean of n replicates, supplement
[6] = read-out: TR-FRET IC50, tables and figures
[7] = read-out: TR-FRET IC50 individual replicates, single replicates, italic values used 10nM BCL6, otherwise 1nM BCL6

Row | Compound | IC50 (BCL6 BTB domain [1]; [4]) | BCL6 TR-FRET pIC50 mean (BCL6 BTB domain [1]) | IC50 (BCL6 BTB domain [1]; [5]) | IC50 (BCL6 BTB domain [1]; [6]) [nM] | IC50 (BCL6 BTB domain [1]; [7]) | Ligand density in extended pocket (BCL6 BTB domain [2]) | solubility at 20 h (NMR solubility assay) [µM] | Papp ([3]; PAMPA, pH 7.4) [×10⁻⁶ cm/s] | PAMPA7.4 [3]
1 | CN(C)c1cc(=O)[nH]c2ccc(Nc3ccnc(Cl)c3C#N)cc12 [Compound 8a, 2-Chloro-4-((4-(dimethylamino)-2-oxo-1,2-dihydroquinolin-6-yl)amino)nicotinonitrile] | 7010 nM and 4460 nM | 5.25 and 5.254 | 5570 nM | 5570 | 5520 nM | No | – | – | –
2 | N#Cc1c(Nc2ccc3[nH]c(=O)cc(N4CCCCC4)c3c2)ccnc1Cl [Compound 8b, 2-Chloro-4-((2-oxo-4-(piperidin-1-yl)-1,2-dihydroquinolin-6-yl)amino)nicotinonitrile] | 1570 nM and 1240 nM and 920 nM and 540 nM and 2320 nM | 5.93 and 5.929 | 1180 nM | 1180 | – | No | – | – | –
3 | CN1CCN(c2cc(=O)[nH]c3ccc(Nc4ccnc(Cl)c4C#N)cc23)CC1 [Compound 8c, 2-Chloro-4-((4-(4-methylpiperazin-1-yl)-2-oxo-1,2-dihydroquinolin-6-yl)amino)nicotinonitrile] | 5770 nM and 1240 nM and 2440 nM and 2900 nM | 5.58 and 5.578 | 2640 nM | 2640 | 2550 nM | No | – | – | –
4 | CCNc1cc(=O)n(C)c2ccc(Nc3cc(C(=O)O)nc(Cl)c3C#N)cc12 [Compound 11a, 6-Chloro-5-cyano-4-((4-(ethylamino)-1-methyl-2-oxo-1,2-dihydroquinolin-6-yl)amino)picolinic Acid] | 810 nM and 840 nM and 1120 nM | 6.05 and 6.045 | 901 nM | 900 | 890 nM and 870 nM | – | 237 (≈ 94.3 µg/mL) | – | –
5 | CCCNc1cc(=O)n(C)c2ccc(Nc3cc(C(=O)O)nc(Cl)c3C#N)cc12 [Compound 11b, 6-Chloro-5-cyano-4-((1-methyl-2-oxo-4-(propylamino)-1,2-dihydroquinolin-6-yl)amino)picolinic Acid] | 1330 nM and 1810 nM | 5.82 and 5.822 | 1510 nM | 1510 | 1440 nM and 1490 nM | – | 40 (≈ 16.5 µg/mL) | – | –
6 | Cn1c(=O)cc(NCCF)c2cc(Nc3cc(C(=O)O)nc(Cl)c3C#N)ccc21 [Compound 11c, 6-Chloro-5-cyano-4-((4-((2-fluoroethyl)amino)-1-methyl-2-oxo-1,2-dihydroquinolin-6-yl)amino)picolinic Acid] | – | 6.06 and 6.057 | 880 nM and 878 nM | 880 | 870 nM and 890 nM and 880 nM | – | 82 (≈ 34.1 µg/mL) | – | –
7 | Cn1c(=O)cc(NCC2CC2)c2cc(Nc3cc(C(=O)O)nc(Cl)c3C#N)ccc21 [Compound 11d, 6-Chloro-5-cyano-4-((4-((cyclopropylmethyl)amino)-1-methyl-2-oxo-1,2-dihydroquinolin-6-yl)amino)picolinic Acid] | 270 nM and 420 nM | 6.46 and 6.461 | 350 nM and 346 nM | 350 | 360 nM and 350 nM | – | 324 (≈ 137 µg/mL) | – | –
8 | CNC(=O)[C@@H](C)Nc1cc(=O)[nH]c2ccc(Nc3ccnc(Cl)c3C#N)cc12 [Compound 12b, (R)-2-((6-((2-Chloro-3-cyanopyridin-4-yl)amino)-2-oxo-1,2-dihydroquinolin-4-yl)amino)-N-methylpropanamide] | 300 nM (2×) and 220 nM and 280 nM and 190 nM | 6.60 and 6.596 | 253 nM | 250 | 240 nM and 260 nM | – | 64 (≈ 25.4 µg/mL) | < 0.2 | no measurable passive permeability
9 | CNC(=O)[C@H](C)Nc1cc(=O)[nH]c2ccc(Nc3ccnc(Cl)c3C#N)cc12 [Compound 12c, (S)-2-((6-((2-Chloro-3-cyanopyridin-4-yl)amino)-2-oxo-1,2-dihydroquinolin-4-yl)amino)-N-methylpropanamide] | 3390 nM and 2070 nM and 2270 nM and 3400 nM and 3900 nM and 2940 nM and 1540 nM | 5.57 and 5.574 | 2670 nM | 2670 | – | – | 64 (≈ 25.4 µg/mL) | – | –
10 | CNC(=O)C(Nc1cc(=O)[nH]c2ccc(Nc3ccnc(Cl)c3C#N)cc12)C1CC1 (stereo not drawn) [Compound 12d, 2-((6-((2-Chloro-3-cyanopyridin-4-yl)amino)-2-oxo-1,2-dihydroquinolin-4-yl)amino)-2-cyclopropyl-N-methylacetamide] | 1180 nM and 970 nM | 5.97 and 5.967 | 1080 nM | 1080 | 1100 nM | – | 52 (≈ 22 µg/mL) | – | –
11 | CNC(=O)C(C)Nc1cc(=O)n(C)c2ccc(Nc3ccnc(Cl)c3C#N)cc12 (stereo not drawn) [Compound 13a, 2-((6-((2-Chloro-3-cyanopyridin-4-yl)amino)-1-methyl-2-oxo-1,2-dihydroquinolin-4-yl)amino)-N-methylpropanamide] | – | – | – | – | – | – | 184 (≈ 75.6 µg/mL) | – | <0.2 x10^-6 cms^-1
12 | Cc1nnc(C(C)Nc2cc(=O)n(C)c3ccc(Nc4ccnc(Cl)c4C#N)cc23)o1 (stereo not drawn) [Compound 13c, 2-Chloro-4-((1-methyl-4-((1-(5-methyl-1,3,4-oxadiazol-2-yl)ethyl)amino)-2-oxo-1,2-dihydroquinolin-6-yl)amino)nicotinonitrile] | 1070 nM and 680 nM | 6.06 and 6.059 | 872 nM | 870 | 690 nM and 1180 nM and 840 nM | – | 247 (≈ 108 µg/mL) | – | <0.2 x10^-6 cms^-1
13 | CC(Nc1cc(=O)n(C)c2ccc(Nc3ccnc(Cl)c3C#N)cc12)c1ncn(C)n1 (stereo not drawn) [Compound 13d, 2-Chloro-4-((1-methyl-4-((1-(1-methyl-1H-1,2,4-triazol-3-yl)ethyl)amino)-2-oxo-1,2-dihydroquinolin-6-yl)amino)nicotinonitrile] | – | – | – | – | – | – | 258 (≈ 112 µg/mL) | – | –
14 | C[C@@H](Nc1cc(=O)n(C)c2ccc(Nc3ccnc(Cl)c3C#N)cc12)c1ncccn1 [Compound 13f, (R)-2-Chloro-4-((1-methyl-2-oxo-4-((1-(pyrimidin-2-yl)ethyl)amino)-1,2-dihydroquinolin-6-yl)amino)nicotinonitrile] | – | – | – | – | – | – | 126 (≈ 54.4 µg/mL) | – | 0.8 x10^-6 cms^-1
15 | CC(Nc1cc(=O)n(CC2CC2)c2ccc(Nc3ccnc(Cl)c3C#N)cc12)c1ncccn1 (stereo not drawn) [Compound 17a, 2-Chloro-4-((1-(cyclopropylmethyl)-2-oxo-4-((1-(pyrimidin-2-yl)ethyl)amino)-1,2-dihydroquinolin-6-yl)amino)nicotinonitrile] | 230 nM and 790 nM | 6.38 and 6.379 | 418 nM | 420 | 410 nM | – | 72 (≈ 34 µg/mL) | – | 8.5 x10^-6 cms^-1
16 | CC(Nc1cc(=O)n(CC2CCC2)c2ccc(Nc3ccnc(Cl)c3C#N)cc12)c1ncccn1 (stereo not drawn) [Compound 17b, 2-Chloro-4-((1-(cyclobutylmethyl)-2-oxo-4-((1-(pyrimidin-2-yl)ethyl)amino)-1,2-dihydroquinolin-6-yl)amino)nicotinonitrile] | 250 nM and 210 nM and 640 nM | 6.49 and 6.489 | 324 nM | 320 | – | – | 32 (≈ 15.6 µg/mL) | – | 21 x10^-6 cms^-1
17 | Cc1cnc(C(C)Nc2cc(=O)n(C)c3ccc(Nc4ccnc(Cl)c4C#N)cc23)nc1 (stereo not drawn) [Compound 24a, 2-Chloro-4-((1-methyl-4-((1-(5-methylpyrimidin-2-yl)ethyl)amino)-2-oxo-1,2-dihydroquinolin-6-yl)amino)nicotinonitrile] | 60 nM and 90 nM | 7.14 and 7.136 | 70 nM and 73.1 nM | 73 | 70 nM | – | 31 (≈ 13.8 µg/mL) | – | 5.6 x10^-6 cms^-1
18 | CC(Nc1cc(=O)n(C)c2ccc(Nc3ccnc(Cl)c3C#N)cc12)c1ncc(C2CC2)cn1 (stereo not drawn) [Compound 24b, 2-Chloro-4-((4-((1-(5-cyclopropylpyrimidin-2-yl)ethyl)amino)-1-methyl-2-oxo-1,2-dihydroquinolin-6-yl)amino)nicotinonitrile] | – | – | – | – | – | – | 32 (≈ 15.1 µg/mL) | – | 14 x10^-6 cms^-1
